The text below walks through data of ChEMBL document CHEMBL1150345 (J Med Chem, 2008).

For the first experiment, the target named is T1, Histamine H4 receptor (Homo sapiens, UniProt Q9H3N8). The experiment in a line: Displacement of [3H]histamine from human histamine H4 receptor expressed in […] cells at 5 uM. In kind it is cell-based. The settings on record: SK-N-MC. In general terms: Displacement assays read how much labelled ligand stays bound in the presence of the test substance.
T1 sequence (Q9H3N8 whole entry): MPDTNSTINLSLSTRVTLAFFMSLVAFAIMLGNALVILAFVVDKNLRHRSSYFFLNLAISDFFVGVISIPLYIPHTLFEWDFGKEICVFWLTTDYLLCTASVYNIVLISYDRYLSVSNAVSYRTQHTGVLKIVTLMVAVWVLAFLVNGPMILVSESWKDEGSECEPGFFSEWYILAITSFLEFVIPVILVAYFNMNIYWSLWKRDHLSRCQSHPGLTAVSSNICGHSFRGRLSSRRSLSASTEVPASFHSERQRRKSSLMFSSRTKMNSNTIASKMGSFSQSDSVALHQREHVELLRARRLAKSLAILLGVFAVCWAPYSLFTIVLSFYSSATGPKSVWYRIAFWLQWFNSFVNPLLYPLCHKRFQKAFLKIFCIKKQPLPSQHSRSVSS
The compound `CN1CCN(c2ccccc2NC(=S)NC(=O)c2cc3ccccc3o2)CC1` had an Activity of 50.3%.
Consider `CN(C)CCCNC(=O)/C(=C\c1cn(-c2ccccc2)nc1-c1ccc(Br)cc1)NC(=O)c1ccccc1`, for which the Activity came out at 29.4%.
On the same count and under the same terms, next, `N=C(N)NC(=N)Nc1ccc(Cl)cc1C(=O)c1ccccc1`: 37.1%; `NCCNC(=O)c1cc2ccccc2[nH]1`: 46.9%.
Still for that read-out and setting: the figure for `CC(/C=C/NNC(=N)N)=N/NC(=N)N` is 33.9%; for `N=C(N)NN=C1C=CC(=NNC(=N)N)C=C1` it is 44%.
In turn, `CCOC(=O)c1ccc(NC2=CC(=O)/C(=N\NC(=N)N)c3ccccc32)cc1` registered an Activity of 92.6%.
On the same count and under the same terms, next, `N=C(N)NCc1cccc(CNC(=N)N)n1`: 67.8%; `COc1cccc(C2NCCc3[nH]cnc32)c1` (stereo unspecified): 20.9%; `C/N=C(\N)N/N=C(/C)c1ccc2sc3ccc(/C(C)=N\N/C(N)=N/C)cc3c2c1`: 72%.
Same read-out and setting: next, `CN(CCN(C)c1ccc(N)cc1)c1ccc(N)cc1`: 34.3%; `N=C(N)NN/C(=C(\O)c1ccccc1)c1ccccc1`: 34.7%; `CC(/C=C(\C)NNC(=N)N)=N/NC(=N)N`: 64.3%.
As for `Cc1cc(C)nc(N/C(N)=N/CCc2c[nH]cn2)n1`, the Activity worked out at 95.8%.
On the same count and under the same terms, next, `C[n+]1cccc(NC(=O)c2ccc(NC(=O)c3ccc(C(=O)Nc4ccc(NC(=N)N)cc4)cc3)cc2)c1`: 26%; `CN1CCN(C(=O)c2cccc(Nc3nc(-c4ccccc4)c4cc(Br)ccc4n3)c2)CC1`: 23%.

For the next experiment, the target named is T1, Histamine H4 receptor. The experiment in a line: biochemical. In kind it is cell-based, SK-N-MC.
Details: not given
Broadly, the Ki is the dissociation constant of the complex between target and ligand, obtained from inhibition or displacement. A high value points to lower affinity. Take `C[C@@H](N)Cc1c[nH]cn1`: affinity was put at a Ki of 184 nM. That is a sub-micromolar value.
`Cc1cc(C)nc(N=C(N)NCCc2cnc[nH]2)n1`: the Ki is 85 nM. This Ki is about 2.2-fold lower than that of the compound before.
With `CN(C)CCCSC(=N)N`, the affinity corresponds to a Ki of 90 nM.
Still for that read-out and setting: next, `CCOC(=O)c1ccc(NC2=CC(=O)/C(=N\NC(=N)N)c3ccccc32)cc1`: 219 nM.
On the same count and under the same terms, the figure for `NC(=NCc1ccc(Cl)cc1)SCCCc1cnc[nH]1` [CLOBENPROPIT] is 5 nM; for `N=C(N)NCc1cccc(CNC(=N)N)n1` it is 1240 nM.
Same read-out and setting: next, `C/N=C(\N)N/N=C(/C)c1ccc2sc3ccc(/C(C)=N\N/C(N)=N/C)cc3c2c1`: 1480 nM; `N=C(N)SCCc1cnc[nH]1` [IMETIT]: 3.6 nM.
Compound `CC(/C=C(\C)NNC(=N)N)=N/NC(=N)N` showed a Ki of 897 nM.
Compound `NC(=NCCc1ccc(I)cc1)SCCCc1cnc[nH]1` [IODOPHENPROPIT] returned an inhibitory constant (Ki) of 7.8 nM.
